One experiment addresses T1, androgen receptor (AR) (Homo sapiens, UniProt P10275, T878A).
T1 construct: LNCaP cells expressing ARR2PB-FireflyLuc and CMV-RenillaLuc; endogenous in cells; host or cells: LNCaP cells carrying ARR2PB-FireflyLuc and CMV-RenillaLuc reporters
T1 sequence (P10275 1-920 T878A): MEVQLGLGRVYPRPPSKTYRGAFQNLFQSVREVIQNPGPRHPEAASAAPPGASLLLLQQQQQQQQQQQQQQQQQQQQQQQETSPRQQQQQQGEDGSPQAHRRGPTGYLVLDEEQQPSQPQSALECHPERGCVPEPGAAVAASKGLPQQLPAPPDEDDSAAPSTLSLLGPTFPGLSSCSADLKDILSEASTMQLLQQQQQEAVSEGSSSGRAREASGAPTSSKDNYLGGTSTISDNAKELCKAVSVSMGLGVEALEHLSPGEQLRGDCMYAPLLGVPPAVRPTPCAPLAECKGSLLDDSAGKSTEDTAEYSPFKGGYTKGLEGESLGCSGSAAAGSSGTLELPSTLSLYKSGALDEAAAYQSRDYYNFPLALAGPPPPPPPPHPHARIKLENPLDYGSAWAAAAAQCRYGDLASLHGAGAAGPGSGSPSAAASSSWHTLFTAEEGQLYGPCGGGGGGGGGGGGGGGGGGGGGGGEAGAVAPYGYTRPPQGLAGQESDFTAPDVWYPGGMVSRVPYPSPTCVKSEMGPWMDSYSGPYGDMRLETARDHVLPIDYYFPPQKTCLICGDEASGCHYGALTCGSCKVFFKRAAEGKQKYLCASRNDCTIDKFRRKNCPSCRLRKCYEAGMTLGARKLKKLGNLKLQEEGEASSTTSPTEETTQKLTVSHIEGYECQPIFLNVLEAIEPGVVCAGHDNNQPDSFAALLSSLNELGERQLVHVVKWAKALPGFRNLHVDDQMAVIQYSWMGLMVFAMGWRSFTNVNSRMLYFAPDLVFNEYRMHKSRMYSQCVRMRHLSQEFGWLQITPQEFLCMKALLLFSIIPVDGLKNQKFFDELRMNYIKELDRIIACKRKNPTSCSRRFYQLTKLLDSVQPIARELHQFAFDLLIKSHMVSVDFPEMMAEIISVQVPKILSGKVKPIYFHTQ
The experiment in a line: AR reporter assay in LNCaP cells expressing ARR2PB-FireflyLuc and CMV-RenillaLuc, antagonist mode (% remaining activity, IC50). In kind it is cell-based. To be noted: 48 h at 37° C., class symbols A-D, read-out: IC50. How it is done: LNCaP cells expressing ARR2PB-FireflyLuc and CMV-RenillaLuc were treated with indicated concentrations of test compounds, enzalutamide (negative control), or DHT (positive control)+/−0.5 nM DHT for 48 h at 37° C. […] Remaining activity (antagonist mode) was calculated as % Remaining Activity=100×[(Readsample−LCave)/(HCave−LCave)] where HC is cells treated with 0.5 nM DHT only and LC is cells treated with 10 uM enzalutamide+0.5 nM DHT. Activation (agonist mode) was calculated as % Activation=100×[(ReadSample−LCave)/(HCave−LCave)] where HC is cells treated with 1 uM DHT and LC is cells treated with DMSO. Dose response curves and IC50 values were calculated using non-linear regression analysis in XLfit.
The designation “A” indicates an IC50 value of >10 μM, “B” indicates an IC50 value between 1 μM and 10 μM; “C” indicates an IC50 value between 100 nM and 1 μM; and “D” indicates an IC50 value of less than 100 nM.
(In general: Reporter assays use an easily measured gene product as a stand-in for the process of interest.)
In general, IC50 refers to the concentration that inhibits the measured activity by half. As to `COc1nc(-c2c[nH]c3c(C#N)cccc23)cnc1N[C@H]1CCN(C(C)=O)C1` [Compound 288], the IC50 is below 0.1 µM. On to `N#Cc1cccc2c(-c3ccc4c(n3)CCCN4)c[nH]c12` [Compound 121], for which the concentration for half-maximal inhibition (IC50) was below 0.1 µM.

On to `CC(=O)N1CCC(Oc2ccc(-c3c[nH]c4c(C#N)cccc34)nc2C)C1` (stereo not drawn) [Compound 260], for which the IC50 lay in the range of 0.1 to 1 µM. Same read-out and setting: as for `Nc1ccc(-c2n[nH]c3cc(F)c(F)cc23)nc1Cl` [Compound 93], the figure is 0.1 to 1 µM. For `CC1CCNc2ccc(-c3n[nH]c4cc(F)c(F)cc34)nc21` (single isomer, unassigned) [Compound 47], the half-inhibitory concentration (IC50) fell in the range of 0.1 to 1 µM.

As to `CCc1nc(-c2n[nH]c3cc(F)c(F)cc23)ccc1N` [Compound 54], the IC50 is 0.1 to 1 µM.

For `CC1(CO)NC(=O)c2ccc(-c3c[nH]c4c(C#N)cccc34)nc21` (stereo not drawn) [Compound 266], the IC50 was above 10 µM. Same read-out and setting: as for `Fc1ccc(-c2n[nH]c3ncccc23)nc1` [Compound 116], the figure is 1 to 10 µM; as for `Cc1nc(-c2c[nH]c3c(C#N)cccc23)ccc1N` [Compound 125], 0.1 to 1 µM. As for `Cc1nc(-c2c[nH]c3c(C#N)cccc23)cnc1OC1CNC1` [Compound 239], the concentration for half-maximal inhibition (IC50) fell in the range of 1 to 10 µM. For `Cn1c(=O)ccc2nc(-c3n[nH]c4ccccc34)ccc21` [Compound 17], the IC50 was in the range of 1 to 10 µM. The same measure, in the same setting: as for `CC(=O)N1CCC(Oc2ncc(-c3n[nH]c4c(Cl)cccc34)nc2C)C1` (stereo not drawn) [Compound 276], the figure is 0.1 to 1 µM; as for `CC1NC(=O)c2ccc(-n3cnc4cc(F)c(F)cc43)nc21` (stereo not drawn) [Compound 108], above 10 µM. The same measure, in the same setting: for `Fc1cc2[nH]nc(-c3ccc4c(n3)CCOC4)c2cc1F` [Compound 40] the value was 1 to 10 µM. Regarding `Cc1nc(-c2n[nH]c3cc(F)c(F)cc23)ccc1C(N)=O` [Compound 101], the IC50 is above 10 µM.

Consider `Fc1cc2[nH]nc(-c3ccnc4cccnc34)c2cc1F` [Compound 27], for which the IC50 lay in the range of 1 to 10 µM. Still for that read-out and setting: for `Cc1nc(-c2c[nH]c3c(C#N)cccc23)cnc1OC1CCC(N)C1` (stereo not drawn) [Compound 275] the value was above 10 µM. Turning to `Cn1ccc2nc(-c3n[nH]c4ccccc34)ccc2c1=O` [Compound 18], the IC50 lay in the range of 1 to 10 µM. On the same count and under the same terms, as for `O=c1[nH]ccc2nc(-c3n[nH]c4cc(F)c(F)cc34)ccc12` [Compound 28], the figure is 0.1 to 1 µM. Same read-out and setting: as for `Fc1cc2[nH]nc(-c3cc4ccccc4nn3)c2cc1F` [Compound 14], the figure is above 10 µM; as for `CCc1nc(-c2c[nH]c3c(C#N)cccc23)cnc1OC1CCN(C(C)=O)C1` (stereo not drawn) [Compound 268], 0.1 to 1 µM. On to `Cc1nc(-c2c[nH]c3c(C#N)cccc23)cnc1OC1CNCC1(F)F` (stereo not drawn) [Compound 322], for which the half-maximal inhibitory concentration (IC50) lay within 1 to 10 µM. The same measure, in the same setting: for `Cc1nc(-c2c[nH]c3c(C#N)cccc23)cnc1OC(C)CN` (stereo not drawn) [Compound 303] the value was 0.1 to 1 µM.

With `CC1(C)NC(=O)c2ccc(-c3c[nH]c4cc(F)c(F)cc34)nc21` [Compound 122], the IC50 lay in the range of 0.1 to 1 µM. Same read-out and setting: as for `Cc1nc(-c2coc3c(Cl)cccc23)cnc1N` [Compound 248], the figure is 1 to 10 µM. On the same count and under the same terms, for `CCOc1nc(-c2n[nH]c3cc(F)c(F)cc23)ccc1N` [Compound 90] the value was 1 to 10 µM; for `CCc1nc(-c2c[nH]c3c(C#N)cccc23)cnc1N` [Compound 214], 0.1 to 1 µM. As for `Cc1cncc(-c2c[nH]c3c(Cl)cccc23)n1` [Compound 212], the IC50 is below 0.1 µM. With `Cc1nc(-c2n[nH]c3cc(F)c(F)cc23)ccc1N` [Compound 53], the IC50 was in the range of 1 to 10 µM.

Take `Cc1nc(-c2c[nH]c3c(C#N)cccc23)cnc1OC1CC2CCC1N2` (stereo not drawn) [Compound 223]: the IC50 lay within 1 to 10 µM. The same measure, in the same setting: for `Cc1nc(-c2c[nH]c3c(F)cccc23)ccc1N` [Compound 141] the value was 1 to 10 µM; for `Cc1nc(-c2c[nH]c3c(S(C)(=O)=O)cccc23)ccc1N` [Compound 208], above 10 µM. Still for that read-out and setting: for `Cn1ccc2nc(-c3n[nH]c4cc(F)c(F)cc34)ccc2c1=O` [Compound 29] the value was above 10 µM; for `CN1C(=O)c2ccc(-c3c[nH]c4c(Cl)cccc34)nc2C1(C)C` [Compound 217], 0.1 to 1 µM.

With `N#Cc1cccc2c(-c3ccc(OC4CCNC4)c(Cl)n3)c[nH]c12` (stereo not drawn) [Compound 237], the IC50 lay within 0.1 to 1 µM. Take `Cc1nc(-c2c[nH]c3c(Cl)cccc23)ccc1N` [Compound 207]: the IC50 lay in the range of 0.1 to 1 µM.

In the case of `Fc1cc2[nH]nc(-c3ncc4c(n3)CCCN4)c2cc1F` [Compound 55], the IC50 is above 10 µM.

Consider `Fc1cc2[nH]nc(-c3ccc4c(n3)CNCC4)c2cc1F` [Compound 32], for which the IC50 is above 10 µM. For `Cc1nc(-c2c[nH]c3c(C#N)cccc23)cnc1NCC(C)(C)O` [Compound 279], the IC50 was in the range of 0.1 to 1 µM. Consider `CN1CCOc2nc(-c3n[nH]c4cc(F)c(F)cc34)ccc21` [Compound 13], for which the half-inhibitory concentration (IC50) fell in the range of 1 to 10 µM. The same measure, in the same setting: as for `Fc1ccc(-c2n[nH]c3cccnc23)nc1` [Compound 112], the figure is above 10 µM. Take `Cc1nc(-c2c[nH]c3c(C#N)cccc23)cnc1OCC(C)O` (stereo not drawn) [Compound 341]: the IC50 was in the range of 1 to 10 µM. The same measure, in the same setting: as for `CC(C)N1CCOc2ccc(-c3n[nH]c4cc(F)c(F)cc34)nc21` [Compound 76], the figure is 1 to 10 µM; as for `N#Cc1cccc2c(-c3cncc(N4CCC4)n3)c[nH]c12` [Compound 213], 0.1 to 1 µM.

With `CC1NC(=O)c2ccc(-c3c[nH]c4cc(F)c(F)cc34)nc21` (stereo not drawn) [Compound 136], the IC50 lay within 0.1 to 1 µM. As to `Cc1nc(-c2c[nH]c3c(C#N)cccc23)cnc1OC1CCNCC1` [Compound 233], the IC50 is above 10 µM. For `Cc1cccc2c(-c3ccc4c(n3)C(C)(C)NC4=O)c[nH]c12` [Compound 314], the IC50 lay within 0.1 to 1 µM. Still for that read-out and setting: for `N#Cc1cccc2c(-c3ccc(OC4CCNC4)c(Cl)c3)c[nH]c12` (stereo not drawn) [Compound 241] the value was 1 to 10 µM. The same measure, in the same setting: for `CC1CCNc2ccc(-c3n[nH]c4cc(F)c(F)cc34)nc21` (single isomer, unassigned) [Compound 48] the value was below 0.1 µM; for `Cc1nc(-c2c[nH]c3c(C#N)cccc23)ccc1NCC(C)(C)O` [Compound 219], 0.1 to 1 µM.

Turning to `N#Cc1cccc2c(-c3cnc(OC4CCNC4)c(C4CC4)n3)c[nH]c12` (stereo not drawn) [Compound 282], the IC50 lay in the range of 1 to 10 µM. As to `CC1(C)NC(=O)c2ccc(-c3c[nH]c4cc(F)c(F)cc34)cc21` [Compound 143], the IC50 lay in the range of 1 to 10 µM. On the same count and under the same terms, for `CC(=O)N1CCC(Oc2ccc(-c3c[nH]c4c(C#N)cccc34)nc2Cl)C1` (stereo not drawn) [Compound 261] the value was 0.1 to 1 µM; for `CCc1nc(-c2c[nH]c3c(C#N)cccc23)cnc1OCCN` [Compound 267], above 10 µM.

For `COc1nc(-c2c[nH]c3c(C#N)cccc23)cnc1OC1CCN(C(C)=O)C1` (stereo not drawn) [Compound 306], the IC50 lay within 1 to 10 µM. On the same count and under the same terms, for `COCCN1C(=O)c2ccc(-c3c[nH]c4c(C#N)cccc34)nc2C1(C)C` [Compound 157] the value was above 10 µM. Same read-out and setting: as for `CSc1nc(-c2c[nH]c3c(C#N)cccc23)cnc1OC1CCNC1` (stereo not drawn) [Compound 307], the figure is above 10 µM; as for `COc1nc(-c2c[nH]c3c(C#N)cccc23)cnc1N(C)C1CCN(C(C)=O)C1` (stereo not drawn) [Compound 294], 0.1 to 1 µM; as for `Nc1ccc(-c2c[nH]c3cc(F)c(F)cc23)nc1Cl` [Compound 209], 0.1 to 1 µM.

The same experiment, now with this note: IC50 (μM), 48 h at 37° C., class symbols A-D.
For `c1ccc2nc(-c3n[nH]c4ccccc34)ccc2c1` [Compound 117], the half-inhibitory concentration (IC50) was 0.1 to 1 µM.

The record behind these values is patent US12448368B2, “Indole compounds as androgen receptor modulators” (NIDO BIOSCIENCES, INC., priority 2020, dated 2025).
